Results reported in patent US20170325453A1, “Herbicidal Mixtures for Controlling Herbicide-Resistant Dicotyledonous Plants” (priority 2014, published 2017).

Legend:
Assay type in all cases: in vivo
[1] = test system: Trichachne insularis (Digitaria insularis); experiment: Example 2: visual control of Trichachne insularis (Digitaria insularis), post emergence (Table 16); settings: visual control 0-100%, dose per numbered treatment
Procedure: (§1) The study was carried out in Brazil.
(§2) All treatments were applied in established weeds, post emergence, before weeds flowering. The treatments were applied using backpressure equipment (nozzles TEEJET8002) with a water consumption of 150 liters per hectare, 1.2 BAR.
(§3) 14, 21, 28, 35 and 42 days after application (“DAA”) evaluations were carried out, i.e. measuring the control of Trichachne insularis (Digitaria insularis) and its regrowth. The assessment consisted in a visual control level of weeds in which 0% related to absence of control and 100% to total control of weeds. The regrowth were assessed by comparing the emergence of new tillers in treatments versus the emergence of new tillers in check (non-treated control).
(§4) An analysis was carried out for viability rates applied through a variance analysis and a mean comparison test of Student—Newman-Keuls ([…]) with the ARM® statistical analysis package.

[2] = test system: Trichachne insularis (Digitaria insularis); experiment: Example 2: regrowth of D. insularis, emergence of new tillers versus non-treated check (Table 17); design: scale not given here; settings: post emergence; for regrowth of D. insularis 35 DAA: 35 days after application; for regrowth of D. insularis 42 DAA: 42 days after application
Procedure: as §1, §2, §3, §4

[3] = test system: Conyza bonariensis; experiment: Example 3: control of Conyza bonariensis, viable weeds versus control plot, synergy by Colby; design: key: % control, viable weeds vs. untreated control plot; settings: weeds 20 cm height at application
From the text: Synergism can be described as an interaction where the combined effect of two or more compounds is greater than the sum of the individual effects of each of the compounds. The presence of a synergistic effect in terms of percent control, between two mixing partners (X and Y) can be calculated using the Colby equation (Colby, S. R., 1967, Calculating Synergistic and Antagonistic Responses in Herbicide Combinations, Weeds, 15, 21-22):
When the observed combined control effect is greater than the expected (calculated) combined control effect (E), then the combined effect is synergistic. The synergistic effect may also be present when the observed combined control effect is equal to the expected (calculates) combined control effect, especially when control values over 90 are calculated.
Analogously, the Colby's equation can be used to determine synergism of 3-way and higher mixtures:
as §1
The applications carried out by a back pressure sprayer with T-jet nozzles (XR-110.02) covering 200 liters per hectare. At the time of application, Conyza bonariensis weeds were 20 cm height. The results assessed by the comparison between viable weeds at the control plot and the viable weeds at the treatments plots. To the experiment, the plot consist of a 20 m2 area (5 meters length and 4 meters width).
The synergy was calculated by Colby formula and it expansion for three-way mixtures

## CCSC(C)CC1CC(=O)C(/C(CC)=N/OC/C=C/Cl)=C(O)C1 (racemic) [Clethodim, (RS)-2-[(E)-1-[(E)-3-chloroallyloxyimino]propyl]-5-[2-(ethylthio)propyl]-3-hydroxycyclohex-2-en-1-one]
[1]
  % of control, 28 DAA, Proved: 62.5%
  % of control, 35 DAA, Proved: 60%
  % of control, 42 DAA, Proved: 52.5%
[2]
  regrowth of D. insularis 35 DAA: 28
  regrowth of D. insularis 42 DAA: 33.75

## O=C(O)CNCP(=O)(O)O [Glyphosate, N-(phosphonomethyl)glycine]
[1]
  % of control, 28 DAA, Proved: 8.75%
  % of control, 35 DAA, Proved: 6.25%
  % of control, 42 DAA, Proved: 3.75%
[2]
  regrowth of D. insularis 35 DAA: 61.25
  regrowth of D. insularis 42 DAA: 67.5
[3]; listed as 1 Glyphosate
  Control of Conyza bonariensis 7 DAA Field Results: 32.50
  Control of Conyza bonariensis 15 DAA Field Results: 65.00
[3]; listed as 3 Glyphosate
  Control of Conyza bonariensis 7 DAA Field Results: 15.00
  Control of Conyza bonariensis 15 DAA Field Results: 27.50

## CC(C)N(C)S(=O)(=O)NC(=O)c1cc(-n2c(=O)cc(C(F)(F)F)n(C)c2=O)c(F)cc1Cl [Saflufenacil, N′-{2-chloro-4-fluoro-5-[1,2,3,6-tetrahydro-3-methyl-2,6-dioxo-4-(trifluoromethyl)pyrimidin-1-yl]benzoyl}-N-isopropyl-N-methylsulfannide]
[1]; listed as 05. Saflufenacil
  % of control, 28 DAA, Proved: 5%
  % of control, 35 DAA, Proved: 5%
[1]; listed as 06. Saflufenacil
  % of control, 28 DAA, Proved: 6.25%
  % of control, 35 DAA, Proved: 6.25%
[1]
  % of control, 42 DAA, Proved: 2.5%
[2]; listed as 05. Saflufenacil
  regrowth of D. insularis 35 DAA: 63.75
  regrowth of D. insularis 42 DAA: 72.5
[2]; listed as 06. Saflufenacil
  regrowth of D. insularis 35 DAA: 66.5
  regrowth of D. insularis 42 DAA: 78.75
[3]; listed as 4 Saflufenacil
  Control of Conyza bonariensis 7 DAA Field Results: 60.00
  Control of Conyza bonariensis 15 DAA Field Results: 56.25
[3]; listed as 5 Saflufenacil
  Control of Conyza bonariensis 7 DAA Field Results: 86.25
  Control of Conyza bonariensis 15 DAA Field Results: 73.75
